Experimental data as given in patent US20210000889A1, “METHODS FOR PROGNOSING AND TREATING METABOLIC DISEASES” (INSERM (INSTITUT NATIONAL DE LA SANTÉ ET DE LA RECHERCHE …, priority 2018, published 2021).

Tests used:
ob/ob mice = assay: 1MT treatment of ob/ob mice (drinking water); assay type: in vivo
Description: Male C57Bl/6 Ido-1−/− mice were bought from the Jackson Laboratory (Jax) and bred in our facility. At weaning, mice were separated according to the genotype. Male ob/ob mice were bought from Janvier Laboratory at 4 weeks of age. Mice were fed with either a normal chow diet (NCD) (A03, SAFE, France) or subjected to diet-induced obesity containing 60% FAT (E15742-347, SSNIFF, Germany). High fat diet (HFD) was started at 7 weeks of age and continued for 20 weeks or less with ad libitum access to water and food. For chimerism experiment, we subjected 10 weeks old C57BL/6 WT and C57BL/6 Ido-1−/− to medullar aplasia by 9.5 gray lethal total body irradiation. We repopulated the mice with an intravenous injection of bone marrow cells isolated from femurs and tibias of male C57BL/6 WT and C57BL/6 Ido-1−/−. After 4 weeks of recovery, mice were fed a HFD for 20 weeks. In some experiments, IDO inhibitor (L-1methyl tryptophan, 1MT) (Sigma) was used at 2 mg/mL diluted in drinking water. […]
For oral glucose tolerance test (OGTT), mice were fasted overnight prior to an oral administration of 1-5 g/kg glucose. […] At 0, 15, 30, 60 min tail vein blood was collected, plasma samples were stored at −20° C. until they were analyzed for insulin concentration (Crystal Chem Inc., Downers Grove, USA). […]
HPLC Quantifications Thawed stools from mice were extracted as previously described 12. L-tryptophan (Trp) and L-kynurenine (Kyn) were measured via HPLC using a coulometric electrode array (ESA Coultronics, ESA Laboratories, Chelsford, Mass., USA)13. Quantifications were performed by referencing calibration curves obtained with internal standards. Other compounds (IAA) were quantified via liquid chromatography coupled to mass spectrometry (LC-MS) by using a Waters ACQUITY ultraperformance liquid chromatography (UPLC) system equipped with a binary solvent delivery manager and sample manager (Waters Corporation, Milford, Mass., USA) and that was coupled to a tandem quadrupole-time-of-flight (Q-TOF) mass spectrometer equipped with an electrospray interface (Waters Corporation). […]

WT mice on HFD = assay: IAA supplementation in drinking water of WT mice on HFD; assay type: in vivo; conditions: IAA 2 mg/ml in drinking water, HFD 11 weeks, vs not supplemented, FIG. 3
Procedure: (a) feces IAA (indole acetic acid) (b) ITT, and quantification of M2-like macrophages (F4/80+CD11b+CD206+ in epiWAT) and CD45+ cells (n=5 per group) (c-d), in WT mice supplemented or not with IAA (diluted in drinking water, 2 mg/ml) and put on HFD during 11 weeks (n=9-10 per group Data are expressed as mean±sem. *P≤0.05, **p<0.001, ***p<0.0001.
For oral glucose tolerance test (OGTT), mice were fasted overnight prior to an oral administration of 1-5 g/kg glucose. Blood was sampled from the tail vein at 0, 5, 15, 30, 60, 90 and 120 min in order to assay glucose concentration (OneTouch Ultra glucometer, LifeScan Europe). At 0, 15, 30, 60 min tail vein blood was collected, plasma samples were stored at −20° C. until they were analyzed for insulin concentration (Crystal Chem Inc., Downers Grove, USA). Insulin tolerance test (ITT) was performed in mice food deprived for 5 h prior to an intraperitonial injection of 1 U/kg insulin. Blood was sampled from the tail vein at 0, 5, 15, 30, 60 and 90 min in order to assay glucose concentration. […]
The stromal vascular fraction (SVF) containing mononuclear cells and preadipocytes was extracted from adipose tissue. […] The SVF pellet was resuspended in 1 mL fluorescence-activated cell sorter (FACS) buffer. […] Samples were acquired using an Fortessa cytometer (Becton Dickinson) and analyzed with FlowJo (TreeStar) software programs.

[1] = 1MT 2 mg/mL in drinking water, vs untreated, data not shown

SMILES	body weight (ob/ob mice; [1])	insulin sensitivity (ob/ob mice; [1])	ratio of Kyn/Trp in the feces (ob/ob mice; 1MT-treated vs not treated, FIG. 1j)	adipose inflammation (M2-like macrophages and CD45+ cells in epiWAT) (WT mice on HFD)	insulin resistance (ITT) (WT mice on HFD)
Cn1cc(C[C@H](N)C(=O)O)c2ccccc21 [1MT, L-1methyl tryptophan]	no difference in body weight	improved insulin sensitivity	significant decrease		
O=C(O)Cc1c[nH]c2ccccc12 [IAA, indole-3-acetic acid]				decreases	decreases insulin resistance
